pEC50: −log10 of the molar value.
Columns and labels:
[1] = Induction of ANGPTL4 mRNA expression in human HT1197 cells
[2] = target: T1, Peroxisome proliferator-activated receptor gamma (Homo sapiens) (UniProt P37231); assay: Inhibition of PPRAgamma in HEK293 cells assessed as […] in FABP4 mRNA expression at 100 nM relative to control; format: cell-based
T1 sequence (whole entry): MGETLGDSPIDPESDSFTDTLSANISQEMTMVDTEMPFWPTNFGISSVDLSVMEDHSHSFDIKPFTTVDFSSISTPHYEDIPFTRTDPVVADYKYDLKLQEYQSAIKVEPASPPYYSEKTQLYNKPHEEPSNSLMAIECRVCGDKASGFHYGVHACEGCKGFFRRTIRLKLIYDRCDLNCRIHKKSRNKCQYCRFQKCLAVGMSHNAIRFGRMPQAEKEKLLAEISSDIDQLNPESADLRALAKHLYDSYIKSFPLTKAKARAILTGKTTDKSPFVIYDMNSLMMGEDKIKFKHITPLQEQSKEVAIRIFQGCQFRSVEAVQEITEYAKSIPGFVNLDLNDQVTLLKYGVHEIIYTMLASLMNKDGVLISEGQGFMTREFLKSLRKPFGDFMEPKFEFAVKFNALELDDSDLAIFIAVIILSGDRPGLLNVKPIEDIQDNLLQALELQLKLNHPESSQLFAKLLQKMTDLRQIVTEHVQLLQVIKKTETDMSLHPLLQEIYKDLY

| Compound | pEC50 [1] | inhibition [2] |
| --- | --- | --- |
| N#Cc1cc(-c2cc(=O)c3c(F)cc(F)cc3[nH]2)c(Cl)cn1 | 9.85 |  |
| N#Cc1ccc(Cl)c(-c2cc(=O)c3c(F)cc(F)cc3[nH]2)c1 |  | 95% |

— ChEMBL document CHEMBL6134908, “Inverse Agonists of Peroxisome Proliferator-Activated Receptor Gamma: Advances and Prospects in Cancer Treatment” (J Med Chem, 2025)
